Entries after “also recorded” stand apart in the source; their conditions may differ.
Key:
HL-1 cells [1] = assay: RT-qPCR expression in HL-1 cells; assay type: cell-based, mouse; details: for expression of circ-Insr: 24 h, epirubicin 1 and 5 μM, daunorubicin 1.25 and 2.5 μM, paclitaxel 0.1 and 0.5 μM
Experimental: HL-1 cells were cultured in Claycomb medium together with 10% FBS, norepinephrine, L-Glutamine and pencillin/streptomycin as manufacturer's protocol. 3T3 and RAW264.7 cells were cultured in DMEM with 10% FBS and pencillin/streptomycin. Neonatal rat cardiomyocytes (NRCM) were isolated from one to three-day old rat babies by using the Neonatal Heart Dissociation Kit (Miltenyi). Human iPSC derived cardiomyocytes (hiPSC-cm) were differentiated at the lab of IMTTS. […] NRCM and hipsc-CM were transduced by AAV6 (MOI: 1*10^4) for 72 hours.
(§1) RNA isolation from cell culture and heart tissue was done using Trifast (Peqlab) as per the manufacturer's instructions. Isolated RNA (500 ng-1000 ng) was reversed transcribed with random primer using iScript Select cDNA synthesis kit (Biorad). Real-Time quantative PCR was done with iQ SYBR Green mix (Biorad) on C1000 Touch Thermocycler (Biorad) using specific primer pairs. For amplification of circular RNAs, divergent primers were used while normal linear transcripts were amplified by convergent primers as usual. For RNase R resistant assay RNA was incubated with RNase R (Biozym Scientific) at 37° C. for 10 minutes and heat […] at 95° C. for three minutes. RNA was then reverse transcribed and amplified by specific PCR primers as mentioned before.

HL-1 cells [2] = assay: mtDNA copy number measurement; assay type: cell-based, mouse; details: doxorubicin 0.25 μM 48 h, circ-Insr by overexpression plasmid
Experimental: (§2) Based on the results of the foregoing examples, it was reasoned that circ-Insr could interact with SSBP1. To further confirm the interaction between circ-Insr and SSBP1, siRNA mediated circ-Insr knock-down was applied in HL-1 cells. Next, RNA pulldown was performed with circ-Insr and scramble biotinylated probes. RT-qPCR confirmed that decrease of circ-Insr appeared both in input and circ-Insr pulldown group (FIG. 23A). […] Therefore, we assumed that circ-Insr is a cofactor of SSBP1 resulting in the regulation of mitochondrial function in cardiomyocytes by stabilizing mtDNA. […] Furthermore, mito-damage assay was applied to measure the changes in mitochondrial membrane potential (MMP). […] Next, we co-transfected HL-1 cells with pcDNA-circ-Insr and SSBP1 siRNA and examined cell viability using the WST assay to explore whether SSBP1 participated in the circ-Insr overexpression-mediated therapy of doxorubicin-cardiotoxicity. RT-qPCR indicated SSBP1 siRNA could downregulate endogenous SSBP1 expression (FIG. 23G).
The ratio of mtDNA to genomic DNA was calculated by dividing copies of CYTB with copies of ACTB in each experiment (Li J, Chan M C, Yu Y, Bei Y H, Chen P, Zhou Q L, et al. miR-29b contributes to multiple types of muscle atrophy. Nature communications. 2017; 8). […] Fluorescence was measured during the last step of each cycle using the SYBR channel. […]

HL-1 cells [3] = assay: WST-1 assay (cell viability); assay type: cell-based, mouse; details: HL-1 cells treated with doxorubicin 0.25 μM 48 h
Experimental: (§3) HL-1 cells were cultured in Claycomb medium together with 10% FBS, norepinephrine, L-Glutamine and pencillin/streptomycin as manufacturer's protocol. 3T3 and RAW264.7 cells were cultured in DMEM with 10% FBS and pencillin/streptomycin. Neonatal rat cardiomyocytes (NRCM) were isolated from one to three-day old rat babies by using the Neonatal Heart Dissociation Kit (Miltenyi). Human iPSC derived cardiomyocytes (hiPSC-cm) were differentiated at the lab of IMTTS. All the cells were treated with 0.25 μM Doxorubicin (Sigma-Aldrich) for 48 hours. circ-Insr siRNA (Eurofins), in vitro circular RNA and overexpression plasmid were transfected with Lipofectamine 2000 (Life Technologies) in OptiMEM medium. NRCM and hipsc-CM were transduced by AAV6 (MOI: 1*10^4) for 72 hours.
WST-1 assay was performed using Cell Proliferation Reagent WST-1 (Roche) as per the manufacturer instruction. Briefly, HL-1 cells were seeded in 96 well plate and next day treated with 0.25 μM Doxorubicin in normal medium with 10% FBS for forty-eight hours. Next, 10 μL WST1 reagent was added and incubated for 1 hour followed by the absorbance measurement (450 nm) at HT Synergy (Biotek) plate reader.

[4] = Body weight changes in doxorubicin cardiotoxicity mouse model; assay type: in vivo; details: doxorubicin and vehicle treated mice
Experimental: (§5) The AAV-circINSR construct was packaged into AAV9 and injected adult male mice (12 weeks) with a single dose of 2×10^12 viral genomes/mouse or with the same amount of AAV9-empty control vectors. After two weeks to allow full AAV mediated gene expression, the mice received a cumulative dose of 25 mg/kg/bw doxorubicin over a course of 5 weeks and were sacrificed 1 week later after echocardiography was performed (FIG. 4A).
(§6) C57BL/6 N mice of 8 weeks of age were injected (intraperitoneally) with doxorubicin at a dose of 5 mg/kg once a week for consecutive 5 weeks. One week later after the last doxorubicin treatment, echocardiography data were recorded by an independent blinded researcher using the Vevo 2100 system (Fujifilm Visulasonics, Inc). […] Echocardiography data were analyzed using standard imaging protocols (M-mode and B-mode) for global cardiac volumes and functioning using the Vevostrain software (Fujifilm Visulasonics, Inc). […] AAV9 (adeno-associated virus serotype 9) was injected (intravenously) 2 weeks before first doxorubicin injection. Animal experiments were randomized and blinded with an internal number.

apoptotic cardiomyocytes = assay: TUNEL and cardiac troponin T co-staining of heart sections; assay type: in vivo, mouse; details: transversal heart sections, doxorubicin model; circINSR given as AAV9
Experimental: (§4) In addition to apoptosis, doxorubicin is known to cause cardiomyocyte atrophy^12 (G). Thus, histopathology analyses were performed on transversal heart section.
Cells were fixed with 4% paraformaldehyde for twenty minutes at room temperature and then permeabilized with ice-cold 0.1% Triton-X-100 in PBS for two minutes at room temperature. Next cells were incubated with enzyme labelling solution provided with In Situ cell death detection kit (Roche) for 1 hour at 37° C. For negative staining, enzyme was not added to the labelling solution. Cells were then washed and incubated with Dapi for 15 minutes. To specifically label neonatal rat cardiomyocytes and hipsc-CM, cells were co-stained with cardiac Troponin T (Thermofisher) after Tunel staining. Images were taken with Nikon Eclipse Ti microscope and images were analyzed with NIS Elements. For analysis in each case, ten different images were analyzed from different regions and average value was taken. Similarly, cryosections of heart were also processed for staining. Numerous images covering complete heart section was taken and Tunel positive nuclei were counted in each field. Average value for each heart was calculated.

mouse heart = assay: RT-qPCR expression analysis in mouse heart tissue; assay type: in vivo
Experimental: as §1

C57BL/6 N mice = assay: Echocardiography in mouse model of chronic doxorubicin-induced cardiotoxicity
Experimental: as §5, §6

[5] = human patients; cited from earlier work
HL-1 cells [6] = assay: Mito-damage assay, mitochondrial membrane potential; assay type: cell-based, mouse; details: doxorubicin 0.25 μM 48 h
Experimental: as §2

circulating circINSR = assay: circINSR level in mouse plasma; assay type: in vivo; details: doxorubicin vs PBS control
From the text: NcRNAs can be released into the extra-cellular space through passive mechanisms (e.g. necrosis of cells) or actively within secreted microvesicles^20. Since they can be readily isolated and measured from body fluids such as blood, these circulating ncRNAs have gained much attention as potential biomarkers for various diseases^21, 22. Indeed, ot was possible to detect circINSR in human and murine plasma (FIG. 9A,B). Strikingly, levels of circulating circINSR were diminished in mice treated with doxorubicin, which warrants further investigation of circINSR as a marker for anthracycline-related heart failure. Then the presence of circINSR in exosomes isolated from HL-1 cell culture supernatants was tested. […] To further corroborate the findings, a circINSR knock-out cell line was generated. Using a dual guideRNA CRISPR/Cas9 approach the majority of the circINSR forming exon was excised (FIG. 18A,B). Expectedly, this not only abrogated circINSR expression but also INSR protein expression (FIG. 18C,D). Then this cell line was used to overexpress circINSR via transfection with pcDNA3.1.
RNA isolation from cell culture and heart tissue was done using Trifast (Peqlab) as per the manufacturer's instructions. Isolated RNA (500 ng-1000 ng) was reversed transcribed with random primer using iScript Select cDNA synthesis kit (Biorad). […]

HL-1 cells [7] = assay: Annexin V & 7-AAD staining (apoptosis); assay type: cell-based, mouse; details: HL-1 cells treated with doxorubicin 0.25 μM 48 h
Experimental: as §3
FlowCellect Annexin Red kit (Millipore) was used to stain apoptotic cells as per the manufacturer instruction. Briefly, cells were seeded in 12 well plate and next day treated with 0.25 μM Doxorubicin in normal medium with 10% FBS for forty-eight hours. Then cells were trypsinized and harvested and stained with Annexin-V for 15 minutes at 37° C. in 1× assay buffer. Annexin-V stained cells were centrifuged and washed with 1× assay buffer. Next cells were incubated with 7-AAD for 5 minutes and acquired on Guava (Millipore) flow cytometer. Data was analyzed with FLOWJO software.

cardiomyocytes = assay: Cardiomyocyte size on wheat germ agglutinin stained heart sections; assay type: in vivo, mouse; details: WGA stained heart sections, doxorubicin model; circINSR given as AAV9
Experimental: as §4
Cryosections of heart were stained with Alexa Fluor 488 labelled wheat germ agglutinin (Invitrogen) and dapi. Images were taken with Nikon Eclipse Ti microscope and images were analyzed with NIS Elements. For each heart 5 to 10 images were randomly taken from different regions of the section and minimum two hundred cells were measured and average value was taken for each heart.

[8] = doxorubicin treated mice, in words

## CC(=O)O[C@H]1C(=O)[C@@]2(C)[C@H]([C@H](OC(=O)c3ccccc3)[C@]3(O)C[C@H](OC(=O)[C@H](O)[C@@H](NC(=O)c4ccccc4)c4ccccc4)C(C)=C1C3(C)C)[C@]1(OC(C)=O)CO[C@@H]1C[C@@H]2O [paclitaxel]
HL-1 cells [1]
  expression of circ-Insr: no change

## COc1cccc2c1C(=O)c1c(O)c3c(c(O)c1C2=O)C[C@@](O)(C(=O)CO)C[C@@H]3O[C@H]1C[C@H](N)[C@@H](O)[C@H](C)O1 [epirubicin]
HL-1 cells [1]
  expression of circ-Insr: significant downregulation

## COc1cccc2c1C(=O)c1c(O)c3c(c(O)c1C2=O)C[C@@](O)(C(C)=O)C[C@@H]3O[C@H]1C[C@H](N)[C@H](O)[C@H](C)O1 [daunorubicin]
HL-1 cells [1]
  expression of circ-Insr: significant downregulation

## COc1cccc2c1C(=O)c1c(O)c3c(c(O)c1C2=O)C[C@@](O)(C(=O)CO)C[C@@H]3O[C@H]1C[C@H](N)[C@H](O)[C@H](C)O1 [doxorubicin]
HL-1 cells [1]; doxorubicin 0.25 μmol/L 48 h
  circINSR expression: downregulation
HL-1 cells [2]
  mtDNA copy number / mtDNA content: significantly reduced
HL-1 cells [3]
  cell viability (WST-1): significantly diminished; also recorded: impair
[4]
  body weight: significantly halted the weight gain
Apoptotic cardiomyocytes
  apoptotic cardiomyocytes (TUNEL / cTNT): strong induction of apoptosis
Mouse heart; doxorubicin treated mice vs PBS control
  Brca1 mRNA expression in hearts: significantly lower levels
Mouse heart; mouse heart, doxorubicin 5 mg/kg once a week for 5 weeks
  circINSR expression in heart: significant decrease; also recorded: downregulation
C57BL/6 N mice; Mean, mice with doxorubicin, cumulative 25 mg/kg over 5 weeks
  Fractional Shortening: significant reduction
C57BL/6 N mice; [8]
  left ventricular anterior and posterior wall thickness: decreased
  left ventricular volume: increased
[5]
  underlying cause in heart transplantation patients, share of all cases: 2-3%
HL-1 cells [6]
  mitochondrial membrane potential (MMP): impair
Circulating circINSR
  levels of circulating circINSR: diminished
HL-1 cells [7]
  apoptotic cells (Annexin V): increased the number of apoptotic cells
cardiomyocytes
  cardiomyocyte size: atrophic response

— patent US20240299584A1, “NON-CODING RNA PROTECTING AGAINST HEART FAILURE” (MEDIZINISCHE HOCHSCHULE HANNOVER, priority 2019, published 2024)
